In US20150202179A1, “FATTY ACID DERIVATIVES FOR USE IN A METHOD OF TREATING DEPRESSION AND ASSOCIATED CONDITIONS” (YISSUM RESEARCH DEVELOPMENT COMPANY OF THE HEBREW …, priority 2012, published 2015):
“Also recorded” adds a separate entry of the source.

Legend:
[1] = tested on: serotonin (5HT) levels; assay: Serotonin (5HT) determination in brain tissue by HPLC with electrochemical detection; type: in vivo, mice; conditions: for 5HT: ng/g wet tissue +/− SEM; for 5HT levels in the hippocampus vs. control / 5HT levels in the hypothalamus vs. control: result in words
Description: (§1) Solution of DHBA as internal standard in the concentration of: 1 μg/ml in 0.1M perchloric acid, were prepared. Standard solutions of NE and 5HT in the concentration of 1-0.1 μg/ml in 0.1M perchloric acid were prepared.
(§2) Tissues (hypothalamus and hippocampus) obtained from 6-8 mice were dissected on ice surface and kept at −80 C. Hypothalamus (HT) or hippocampus (HC) from 1 mice were weighted (weight of HT −10-20 mg, HC 30-40 mg) and placed in eppendorf micro-centrifuge tube, 1.5 ml. To each tube was added 120-160 μl of ice cold solution of Perchloric acid and DHBA, homogenized in ice bath on Sonics vibra cell, 3×20 sec., 0.4 watts and centrifuged at 14,000×g at 4° C. 10 min. Supernatant gained was stored in ice before analysis.
(§3) The HPLC system consisted of Jasco PU-980 pump, Jasco AS-950-10 autosampler cooled at 4° C., H3 ODS-125A 3 μm 125 mm×4.6 mm i.d. analytical column (Hichrom, UK) were used. Electrochemical detector Coulochem ESA 5100A with analytical cell model 5011 was used for control detector voltage and record the current. Working electrode was set at potential +350 mV. Control and data collection/processing were handled through Borwin chromatography software.
(§4) The mobile phase composition: A stock buffer was prepared as follows: 20 mM sodium dihydrogenorthophosphate, EDTA 3 mg/l, 1-heptanesulfonic acid 1 g/l were dissolved in 1 liter deionized distilled water and buffered to pH 3.7 using concentrated phosphoric acid. To prepare the mobile phase buffer was mixed with acetonitrile (Baker HPLC analyzed) in the ratio 85:15 (v/v), filtered through a 0.2 μm membrane filter and degassed under vacuum after mixing. Mobile phase flow rate 1 ml/min. Injection volume 20 μl, retention time for DHBA 4.2 min., norepinephrine—3.1 min., 5HT 8.6 min. For calibration curve 1 ug/ml solution of DHBA together with 1.0-0.1 μg/ml solutions of 5HT and NE were used. The ratio between 5HT or NE and DHBA used to calculate the level of 5HT and NE in the sample. Date are given in ng/g wet tissue +/−SEM.

[2] = tested on: Norepinephrine (NE) levels; assay: Norepinephrine (NE) determination in brain tissue by HPLC with electrochemical detection; type: in vivo, mice; conditions: for NE: ng/g wet tissue +/− SEM; for norepinephrine levels in the hippocampus vs. control / norepinephrine levels in the hypothalamus vs. control: result in words
Description: as §1, §2, §3, §4

[3] = Novelty Suppressed Feeding Test (NSFT), separated BALB/c mice; type: in vivo; conditions: compounds 1 mg/kg i.p., day 9
Description: (§5) Novelty suppressed feeding test (NSFT): After the last treatment injection, all food is removed from the cage for 24 hours (water available ad libitum). At the end of this time, the animal is introduced into a 50×50×20 (height) cm wooden arena the floor of which is marked with equal rectangles of 10×10 cm. A pellet of food is placed on an elevated surface in the center of the arena. The time elapsing from the introduction of the animal into the arena until it commences eating (latency to feed) is recorded. The animal is removed from the arena immediately after it begins to eat or after not doing so for 5 min. During the test, the number of lines crossed by the animal is counted as a measure of motor activity, and calibrated for 5 min if the animal started eating before that. After the test, the animal is immediately transferred to its home cage and left to consume a previously weighed amount of food for 10 minutes. On completion of this period the food is weighed again to calculate the home cage food consumption.
(§6) 50, 2 month old female BALB/c mice, 10 mice per group, on ad libitum diet were separated (each mouse in a different cage) for 9 days (Separation Stress, a model for depression). On the 7, 8, 9, 34-40, days mice were administered with either vehicle or compounds x, 12 and 15 (1 mg/kg i.p.) or imipramine 10 mg/kg (antidepressant) i.p. and tested in Novel Suppressed Feeding Test on day 9.
as §5, with “FIGS. 9A-9C show the results of the NSFT. […]” for “Novelty suppressed feeding test (NSFT):”, “hours.” for “hours (water available ad libitum).”, “into” for “into a 50×50×20 (height) cm wooden arena”, “open field test.” for “floor of which is marked with equal rectangles of 10×10 cm.”, “to find” for “elapsing from”, “food was” for “introduction of the animal into the arena until it commences eating (latency to feed) is”

[4] = Weight and food consumption in OB/OB mice which lack the leptin gene; type: in vivo
Excerpt: Thus the compounds of the invention can be used to treat conditions that are mediated by the enhancement of leptin levels. In obesity there is high leptin level however the leptin receptors are not responding. High CNS leptin level has anti-depression effect however, if there is tolerance there is no anti depression effect.

[5] = Eight Arm Maze Test, separated BALB/c mice; type: in vivo; conditions: compounds 1 mg/kg i.p., imipramine 10 mg/kg i.p.; day 34-38; in relation to vehicle (p<0.05)
Description: 2 month old female BALB/c mice 10 mice per group were separated (each mouse in a different cage) for 9 days (a model for depression). On days 7, 8, 9, 34-40 days mice were administered with either vehicle or compounds X, 12 and 15 (1 mg/kg i.p.) or imipramine 10 mg/kg (anti-depressant) i.p. and tested in the Eight Arm Maze from day 34-38.

[6] = Weight and food consumption in Sabra mice; type: in vivo
Description: 140 Female Sabra Mice 12 weeks old are divided to […] 10 mice in each group with equal weight. Mice are administered I.P. with either saline or 1 mg/kg Fluoxetine (PROZAC), compound 1, 4, 5, 7, 10, 11, 12, 13, 14, 15, 19, 26 for a 4 weeks period. On day 30 and on, mice were tested by the following behavioral tests. […]

[7] = Neurological score measured by the NSS method; type: in vivo, BALB/c mice; conditions: 1 mg/kg i.p.
[8] = Forced Swim Test (FST), separated BALB/c mice; type: in vivo; conditions: compounds 1 mg/kg i.p., imipramine 10 mg/kg i.p.; day 8; in relation to vehicle
Description: Forced swim test (FST): The animal is placed in a circular, transparent, plexiglass tank measuring 21 cm in diameter and 46 cm in height containing water 15 cm high, maintained at 23-25° C. […] Also measured is the latency period, the time elapsing, for each animal from immersion in the water tank until the first occurrence of immobility. Since climbing activity is minimal in mice, […].
as §6, with “34-40” for “34-40,”, “the forced swim test (FST)” for “Novel Suppressed Feeding Test”, “8.” for “9.”

[9] = Tail Suspension Test, separated BALB/c mice (model for depression); type: in vivo; conditions: compounds 1 mg/kg i.p., imipramine 10 mg/kg i.p.; day 7; in relation to vehicle
Excerpt: Tail suspension test (TST): Animals are suspended upside down by adhesive tape placed 1 cm from the tail tip. The elevation of the animal is 50 cm from the nearest surface. […] Statistical analysis compares the magnitude of immobility (in seconds) between different treatment groups. In this test, antidepressants characteristically cause an increase of the time fraction spent by the animal as active at the expense of the inactivity period.
50, 2 month old female BALB/c mice were separated (each mouse in a different cage) for 9 days period (a model for depression). On days 7, 8, 9, 34-40 mice were administered with either vehicle or compounds X, 12 and 15 (1 mg/kg i.p.) or imipramine 10 mg/kg (anti-depressant) i.p. and tested in the Tail suspension test on day 7 of the experiment (10 mice per group).

Row | Compound | 5HT ([1]; Hippocampus) | 5HT levels in the hippocampus vs. control [1] | NE ([2]; Hippocampus) | norepinephrine levels in the hippocampus vs. control [2] | 5HT ([1]; Hypothalamus) | 5HT levels in the hypothalamus vs. control [1] | further results
1 | CCCCC/C=C\C/C=C\CCCCCCCC(=O)N[C@H](CO)CC(C)C [Compound 4, Linoleoyl-L-Leucinol amide] | 380.4 ± 12.8 ng/g | significantly enhanced; also recorded: increased significantly | 302.5 ± 22.4 ng/g | significantly enhanced; also recorded: increase significantly | – | – | –
2 | CCCCCCCC/C=C\CCCCCCCC(=O)N[C@H](CO)CC(C)C [Compound 5, Oleoyl-L-Leucinol amide] | 419.8 ± 67.4 ng/g | increased significantly | – | – | 767.2 ± 51.9 ng/g | – | –
3 | CCCCCCCC/C=C/CCCCCCCC(=O)N[C@H](CO)C(C)C [Compound 7, Elaidoyl-L-Valinol amide] | 335.4 ± 45.4 ng/g | increased significantly | – | – | 856.5 ± 115.2 ng/g | increased significantly | –
4 | CCCCC/C=C\C/C=C\CCCCCCCC(=O)N[C@H](CO)C(C)C [Compound 10, Linoleoyl-L-Valinol amide] | 299.2 ± 22.8 ng/g | significantly enhanced; also recorded: increased significantly | 407.9 ± 48.9 ng/g | significantly enhanced; also recorded: increase significantly | – | – | –
5 | CCCCCCCC/C=C\CCCCCCCC(=O)N[C@@H](CO)C(C)C [Compound 11, Oleoyl-D-Valinol] | – | – | – | – | 777.8 ± 79.1 ng/g | increased significantly | –
6 | CCCCCCCC/C=C\CCCCCCCCOC(=O)N[C@H](CO)C(C)C [Compound 12, Oleyloxycarbonyl-L-Valinol amide] | 332.1 ± 52.7 ng/g | significantly enhanced; also recorded: increased significantly | 378.9 ± 31.4 ng/g | significantly enhanced; also recorded: increase significantly | 810.5 ± 70.6 ng/g | increased significantly | food intake in NSFT ([3]; in relation to vehicle and more than imipramine 10 mg/kg): significantly enhanced food intake; motor activity in NSFT ([3]; resembled imipramine 10 mg/kg): enhanced motor activity; food consumption [4]: did not change; weight (weight loss) [4]: do not produce weight loss; also recorded: did not change; performance in the Eight Arm Maze [5]: significantly improved performance; food consumption [6]: significant decrease; weight (weight loss) [6]: significant weight loss; also recorded: significant decrease; neurological score (NSS method) [7]: did not affect neurological score; swimming activity in forced swim test [8]: significantly enhanced swimming activity
7 | CCCCCCCC/C=C\CCCCCCCCOC(=O)N[C@@H](CO)C(C)C [Compound 13, Oleyloxycarbonyl-D-Valinol amide] | 300.1 ± 41.5 ng/g | significantly enhanced; also recorded: increased significantly | 396.7 ± 44.7 ng/g | significantly enhanced; also recorded: increase significantly | 831.3 ± 29.1 ng/g | increased significantly | NE ([2]; Hypothalamus): 1002 ± 62.7 ng/g
8 | CCCCCCCC/C=C\CCCCCCCC(=O)N[C@H](CO)Cc1ccccc1 [Compound 26, Oleoyl-L-phenyl alaninol] | – | – | – | increase significantly | – | – | –
9 | CN(C)CCCN1c2ccccc2CCc2ccccc21 [imipramine, reference compound] | – | – | – | – | – | – | activity in Tail Suspension Test [9]: significantly enhanced activity; performance in the Eight Arm Maze [5]: significantly improved performance; swimming activity in forced swim test [8]: significantly enhanced swimming activity
10 | Oleyl-amine-carbonyl-D-valinol [Compound 14] | 344 ± 32.4 ng/g | increased significantly | 313.9 ± 48 ng/g | increase significantly | 876.4 ± 126.8 ng/g | increased significantly | 5HT levels in the hippocampus vs. control ([1]; listed as compound 14): significantly enhanced; 5HT levels in the hypothalamus vs. control ([1]; listed as compound 14): significantly enhanced; NE ([2]; Hypothalamus): 1139.4 ± 43.3 ng/g; norepinephrine levels in the hippocampus vs. control ([2]; listed as compound 14): significantly enhanced; norepinephrine levels in the hypothalamus vs. control [2]: increased significantly; norepinephrine levels in the hypothalamus vs. control ([2]; listed as compound 14): significantly enhanced
11 | Oleylamino-D-2-hydroxyvaline amide [Compound 19] | 296.3 ± 33.2 ng/g | significantly enhanced; also recorded: increased significantly | 296.4 ± 24.8 ng/g | significantly enhanced; also recorded: increase significantly | – | – | –
